Test results published in BindingDB's records for doi:10.1021/acs.jmedchem.9b01348 (West China Hospital of Sichuan University, 2019).

Experiment: Inhibition of JAK2 V617F mutant in BAF3 cells assessed as reduction in cell growth measured after 72 hrs by MTT assay

- IC50: 1.06 µM
Structure (SMILES): C1=C/COCc2cc(ccc2OCCN2CCCC2)Nc2nccc(n2)-c2cccc(c2)COC/1 [ONX-0803]
